Laboratory results as given in the supplement of paper PMC11451515.

Test system: P12-Ichikawa
Experiment: cell viability relative to DMSO control; higher = less cytotoxic
Conditions: 48 h
Method in brief: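 Viability is expressed as a percentage of DMSO wells within each plate, and cell-free wells serve as background. Seeding densities in the 1536-well plates (5 μl) were 500 cells/well for NOMO1 or SEM leukemia cells and 1000 cells/well for P12-Ichikawa. Each line was adapted for at least four passages in each medium. Library compounds in DMSO were pin-dosed at 47 μM to 0.79 nM (11 points, threefold), and CellTiter-Glo One luminescence was read after 48 h at 37°C.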

[1] = HPLM + 10% dialyzed FBS, 0.000781 µM
[2] = HPLM + 10% dialyzed FBS, 0.00234 µM
[3] = HPLM + 10% dialyzed FBS, 0.00702 µM
[4] = HPLM + 10% dialyzed FBS, 0.0211 µM
[5] = HPLM + 10% dialyzed FBS, 0.0632 µM
[6] = HPLM + 10% dialyzed FBS, 0.19 µM
[7] = HPLM + 10% dialyzed FBS, 0.569 µM
[8] = HPLM + 10% dialyzed FBS, 1.71 µM
[9] = HPLM + 10% dialyzed FBS, 5.12 µM
[10] = HPLM + 10% dialyzed FBS, 15.4 µM
[11] = HPLM + 10% dialyzed FBS, 46.1 µM
[12] = RPMI 5 mM glucose + 10% FBS, 0.000781 µM
[13] = RPMI 5 mM glucose + 10% FBS, 0.00234 µM
[14] = RPMI 5 mM glucose + 10% FBS, 0.00702 µM
[15] = RPMI 5 mM glucose + 10% FBS, 0.0211 µM
[16] = RPMI 5 mM glucose + 10% FBS, 0.0632 µM
[17] = RPMI 5 mM glucose + 10% FBS, 0.19 µM
[18] = RPMI 5 mM glucose + 10% FBS, 0.569 µM
[19] = RPMI 5 mM glucose + 10% FBS, 1.71 µM
[20] = RPMI 5 mM glucose + 10% FBS, 5.12 µM
[21] = RPMI 5 mM glucose + 10% FBS, 15.4 µM
[22] = RPMI 5 mM glucose + 10% FBS, 46.1 µM
[23] = RPMI 5 mM glucose + 10% dialyzed FBS, 0.000781 µM
[24] = RPMI 5 mM glucose + 10% dialyzed FBS, 0.00234 µM
[25] = RPMI 5 mM glucose + 10% dialyzed FBS, 0.00702 µM
[26] = RPMI 5 mM glucose + 10% dialyzed FBS, 0.0211 µM
[27] = RPMI 5 mM glucose + 10% dialyzed FBS, 0.0632 µM
[28] = RPMI 5 mM glucose + 10% dialyzed FBS, 0.19 µM
[29] = RPMI 5 mM glucose + 10% dialyzed FBS, 0.569 µM
[30] = RPMI 5 mM glucose + 10% dialyzed FBS, 1.71 µM
[31] = RPMI 5 mM glucose + 10% dialyzed FBS, 5.12 µM
[32] = RPMI 5 mM glucose + 10% dialyzed FBS, 15.4 µM
[33] = RPMI 5 mM glucose + 10% dialyzed FBS, 46.1 µM

Row | SMILES | cell viability [1] | cell viability [2] | cell viability [3] | cell viability [4] | cell viability [5] | cell viability [6] | cell viability [7] | cell viability [8] | cell viability [9] | cell viability [10] | cell viability [11] | cell viability [12] | cell viability [13] | cell viability [14] | cell viability [15] | cell viability [16] | cell viability [17] | cell viability [18] | cell viability [19] | cell viability [20] | cell viability [21] | cell viability [22] | cell viability [23] | cell viability [24] | cell viability [25] | cell viability [26] | cell viability [27] | cell viability [28] | cell viability [29] | cell viability [30] | cell viability [31] | cell viability [32] | cell viability [33]
1 | COc1cc(C[C@@H](CO)[C@H](CO)Cc2ccc(O)c(OC)c2)ccc1O | 94.8% | 102% | 100% | 105% | 106% | 116% | 112% | 111% | 104% | 99.6% | 115% | 99.4% | 95.1% | 108% | 109% | 109% | 111% | 118% | 119% | 114% | 117% | 110% | 109% | 112% | 113% | 118% | 118% | 122% | 119% | 133% | 134% | 136% | 125%
2 | COCCCC/C(=N\OCCN)c1ccc(C(F)(F)F)cc1 | 98.4% | 87.1% | 91.2% | 91% | 94.9% | 80.8% | 74.4% | 85% | 80.9% | 72.2% | 63.5% | 83.5% | 81.8% | 91.7% | 79.8% | 95.8% | 72% | 62.2% | 83.2% | 80.3% | 67% | 41.9% | 79.8% | 80.7% | 76.9% | 84.6% | 84.4% | 80.3% | 77.9% | 78.8% | 74.5% | 77.2% | 52.7%
3 | CN(C[C@@H]1COCCO1)[S+]([O-])(=O)NC2=CC3=C(C=C2)\C=C/C4=C(C=C(C=N4)C5=C[N](C)N=C5)C3=O | 93.4% | 99.6% | 94.1% | 101% | 93.7% | 90.1% | 71.8% | 67.4% | 54.7% | 49.8% | 52.4% | 95.6% | 92.7% | 103% | 95.2% | 102% | 96.1% | 76.6% | 53.5% | 48.8% | 42.2% | 50% | 94% | 97.1% | 88.7% | 91.2% | 105% | 88.9% | 75.3% | 53.6% | 43.3% | 37.6% | 41.5%
4 | CCN1\C=C(C(O)=O)/C(=O)C2=C1C(=C(N3CCNC(C)C3)C(=C2)F)F (centres undefined) | 96.7% | 107% | 111% | 125% | 101% | 109% | 119% | 115% | 124% | 118% | 110% | 87% | 94% | 110% | 110% | 109% | 110% | 114% | 113% | 107% | 124% | 116% | 104% | 112% | 110% | 113% | 107% | 116% | 117% | 113% | 124% | 120% | 112%
5 | C=C1CCC2[C@](C)(CO)C(O)CC[C@]2(C)C1C/C=C1/C(=O)OCC1O (some centres undefined) | 122% | 124% | 122% | 114% | 121% | 117% | 104% | 103% | 106% | 114% | 115% | 115% | 112% | 118% | 106% | 114% | 110% | 108% | 109% | 107% | 98.6% | 107% | 120% | 115% | 124% | 115% | 116% | 111% | 109% | 103% | 98.7% | 110% | 106%
6 | CCCC[S+](=N)([O-])CCC(N)C(=O)O (centres undefined) | 113% | 124% | 127% | 126% | 132% | 137% | 135% | 139% | 131% | 128% | 6.85% | – | – | – | – | – | – | – | – | – | – | – | – | – | – | – | – | – | – | – | – | – | –
7 | COC(=O)[C@H](Cc1ccccc1)NC(=O)[C@@H](N)CC(=O)O | 112% | 119% | 120% | 115% | 119% | 108% | 112% | 112% | 106% | 101% | 100% | 110% | 110% | 113% | 119% | 115% | 125% | 107% | 109% | 102% | 102% | 108% | 114% | 109% | 125% | 112% | 120% | 110% | 112% | 110% | 107% | 104% | 101%
8 | CC(C)C[C@H](CC(=O)O)C(=O)N[C@@H](Cc1c[nH]c2ccccc12)C(=O)N[C@@H](C)c1ccccc1 | 95.1% | 102% | 108% | 108% | 112% | 111% | 83.6% | 107% | 73.4% | 42.1% | 22.4% | 89% | 96% | 111% | 101% | 94.2% | 106% | 83.7% | 106% | 72.6% | 53.4% | 32.9% | 103% | 111% | 101% | 119% | 107% | 108% | 103% | 107% | 74.8% | 67.8% | 28.2%
9 | NCCOc1cc(C(=O)Nc2cc(OCCN)c3ccccc3n2)nc(C(=O)Nc2cc(OCCN)c3ccccc3n2)c1 | 44.2% | 13.1% | 12.7% | 12.8% | 14.1% | 12.8% | 13.3% | 9.79% | 7.51% | 21.5% | 61.7% | 113% | 120% | 113% | 19% | 17.4% | 17% | 15.7% | 16% | 16.7% | 24.4% | 68.8% | – | – | – | – | – | – | – | – | – | – | –
